From US6713473B1, “Tricyclic compounds” (Meiji Seika Kaisha, Ltd., priority 1999, dated 2004)

Each molecule was assayed against T1, human Y5 receptor (Homo sapiens, UniProt Q15761) (assay: Y5 receptor binding inhibition test). Settings: 2 h, read-out: % Inhibition ratio (10 μM).
T1 sequence (Q15761 1-445): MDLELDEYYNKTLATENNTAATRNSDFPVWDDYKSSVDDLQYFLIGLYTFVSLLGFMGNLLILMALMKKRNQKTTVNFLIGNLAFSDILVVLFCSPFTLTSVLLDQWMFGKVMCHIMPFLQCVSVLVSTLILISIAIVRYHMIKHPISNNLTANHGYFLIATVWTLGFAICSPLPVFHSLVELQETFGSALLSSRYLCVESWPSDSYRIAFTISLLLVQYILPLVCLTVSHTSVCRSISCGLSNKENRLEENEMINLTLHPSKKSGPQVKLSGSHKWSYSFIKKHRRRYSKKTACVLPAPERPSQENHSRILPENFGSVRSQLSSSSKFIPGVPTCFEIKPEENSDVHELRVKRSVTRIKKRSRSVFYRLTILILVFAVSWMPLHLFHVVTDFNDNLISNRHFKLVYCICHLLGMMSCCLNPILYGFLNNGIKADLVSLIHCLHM
`CCn1c2ccccc2c2cc(C(=O)NCCCCNS(=O)(=O)c3cccc4ccccc34)ccc21` [Compound 1-31] showed an inhibition at 10 µM of 94%.
`CCOc1c(C(=O)NCCCCCNS(=O)(=O)c2cccc3ccccc23)ccc2c1c1ccccc1n2CC` [Compound 1-39] was tested, and the inhibition at 10 µM was 80%.
`CCn1c2ccccc2c2cc(C(=O)NCCCCCNS(=O)(=O)c3cccnc3)ccc21` [Compound 1-57] showed an inhibition at 10 µM of 89%.
`CCn1c2ccccc2c2cc(C(=O)NCCCCCN3C(=O)c4ccccc4C3=O)ccc21` [Compound 1-56] showed an inhibition at 10 µM of 94%.
With `CCn1c2ccccc2c2cc(NC(=O)COC)ccc21` [Compound 3-7] the inhibition at 10 µM was 95%.
`CC(=O)n1c2ccccc2c2cc(C(=O)NCCCCCNS(=O)(=O)c3cccc4ccccc34)ccc21` [Compound 1-54] showed an inhibition at 10 µM of 88%.
For `CCn1c2c(c3c(O)c(C(=O)NCCCCCNS(=O)(=O)c4cccc5ccccc45)ccc31)CCCC2` [Compound 1-44], the inhibition at 10 µM was 69%.
In the case of `CCn1c2c(c3cc(NC(C)=O)ccc31)CCC2` [Compound 3-3], the inhibition at 10 µM is reported as 89%.
Molecule `CC(C)S(=O)(=O)NCCCCCNC(=O)c1ccc2c(c1)c1c(n2CC(N)=O)CCCC1` [Compound 1-61] has an inhibition at 10 µM of 77%.
`CC(C)S(=O)(=O)NCCCCCNC(=O)c1ccc2c(c1)c1c(n2CCO)CCCC1` [Compound 1-59] gave an inhibition at 10 µM of 93%.
Work on `CCn1c2ccccc2c2c(O)c(C(=O)NCCCCCNS(=O)(=O)c3cccc4ccccc34)ccc21` [Compound 1-41] yielded an inhibition at 10 µM of 52%.
Work on `CCn1c2c(c3cc(C(=O)NCCCCCNS(=O)(=O)c4cccc5ccccc45)ccc31)CCCC2` [Compound 1-45] yielded an inhibition at 10 µM of 87%.
Work on `CCn1c2ccccc2c2cc(NC(=O)CCCCNS(=O)(=O)c3ccc4ccccc4c3)ccc21` [Compound 1-6] yielded an inhibition at 10 µM of 93%.
`CCn1c2ccccc2c2cc(C(=O)NCCNCCNS(=O)(=O)c3cccc4ccccc34)ccc21` [Compound 1-29] was tested, and the inhibition at 10 µM was 89%.
`CC(C)n1c2c(c3cc(NC(=O)N(C)CCc4ccncc4)c(F)cc31)CCCC2` [Compound 12-1] gave an inhibition at 10 µM of 100%.
`CCCCCCCCS(=O)(=O)NCCCCCNC(=O)c1ccc2c(c1)c1ccccc1n2CC` [Compound 1-12] gave an inhibition at 10 µM of 77%.

Same assay, conditions: test compound 10 μM; 3H-NPY; membrane of insect cells expressing human Y5 receptor; 4° C., 2 hours; relative to Y5 specific binding in solvent group
For `CC(C)n1c2c(c3cc(NC(=O)N(C)CC4CCCO4)ccc31)CCCC2` (stereo not shown) [Compound 5-13], the “% Inhibition ratio (10 μM)” value was 98%.
`CC(C)n1c2c(c3cc(NC(=O)N4CCSC4)ccc31)CCCC2` [Compound 7-14] was tested, and the “% Inhibition ratio (10 μM)” value was 96%.
In the case of `CC(C)n1c2c(c3cc(NC(=O)N4CCN(C)CC4)ccc31)CCCC2` [Compound 7-19], the “% Inhibition ratio (10 μM)” value is reported as 75%.
For `CC(C)n1c2c(c3cc(NC(=O)N(C)CCc4ccncc4)ccc31)CCCC2` [Compound 5-20], the “% Inhibition ratio (10 μM)” value was 103%.
`CC(C)n1c2c(c3cc(NC(=O)N4CCN(c5ncccn5)CC4)ccc31)CCCC2` [Compound 7-21] was tested, and the “% Inhibition ratio (10 μM)” value was 80%.
In the case of `CC(C)Cn1c2c(c3cc(NC(=O)N4CCOCC4)ccc31)CCCC2` [Compound 8-6], the “% Inhibition ratio (10 μM)” value is reported as 100%.
With `COCCN(CCOC)C(=O)Nc1ccc2c(c1)c1c(n2C(C)C)CCCC1` [Compound 6-3] the “% Inhibition ratio (10 μM)” value was 102%.
For `CC(C)n1c2c(c3cc(NC(=O)N4CCCC(CO)C4)ccc31)CCCC2` (stereo not shown) [Compound 7-10], the “% Inhibition ratio (10 μM)” value was 97%.
With `CC(C)n1c2c(c3cc(NC(=O)N(C)CCc4cccnc4)ccc31)CCCC2` [Compound 5-19] the “% Inhibition ratio (10 μM)” value was 100%.
With `CC(=O)n1c2c(c3cc(NC(=O)N4CCOCC4)ccc31)CCCC2` [Compound 8-11] the “% Inhibition ratio (10 μM)” value was 102%.
`CC(C)n1c2c(c3cc(NC(=O)N(C)CCc4ccccn4)ccc31)CCC2` [Compound 10-2] was tested, and the “% Inhibition ratio (10 μM)” value was 83%.
In the case of `CC(C)n1c2c(c3cc(NC(=O)N(C)CCc4ccccn4)ccc31)CCCC2` [Compound 5-18], the “% Inhibition ratio (10 μM)” value is reported as 100%.
In the case of `CC(C)n1c2c(c3cc(NC(=O)N(C)CCN4CCCCC4)ccc31)CCCC2` [Compound 5-14], the “% Inhibition ratio (10 μM)” value is reported as 95%.
With `CC(C)n1c2c(c3cc(NC(=O)N(C)CCCCO)ccc31)CCCC2` [Compound 5-6] the “% Inhibition ratio (10 μM)” value was 89%.
For `CC(C)n1c2c(c3cc(NC(=O)N(C)CCSc4ncc[nH]4)ccc31)CCCC2` [Compound 5-25], the “% Inhibition ratio (10 μM)” value was 101%.
